# Source: patent US7696238B2, “Substituted benzo[d]isoxazol-3-yl amine compounds as analgesics” (Gruenenthal GmbH, priority 2005, dated 2010)
# How the values were obtained:
# [1] = target: T1, KCNQ2/3 ion channel (KCNQ2/3-expressing CHO-K1 cells) (Homo sapiens, UniProt O43525+O43526); test: Fluorescence assay (FLIPR instrument, membrane potential dye) for substances acting agonistically on the KCNQ2/3 ion channel; type: cell-based; details: difference between maximum and minimum values, agonistic action detected from a value of −40 (and below)
# T1 construct: expressed in transfected cells; host or cells: CHO-K1
# Procedure: Pharmacological Test Methods I. Fluorescence Assay (FLIPR™ Instrument) for the Identification of Substances Acting Agonistically on the KCNQ2/3 Ion Channel
# On the day before the experiment, KCNQ2/3-expressing CHO-K1 cells and CHO-K1 empty strain cells were seeded out onto coated poly-D-lysine black/clear plates (Falcon/BD Company; Order No.: 356640) in a concentration of 20000 cells/100 μl MEM alpha, 50 ml FCS, 5.5 ml PIS/G/solution (100×) and then incubated for 20-24 hours in an incubator (37° C., 5% CO2). On the day of the experiment the HBSS/hepes working solution and the FMP/HBSS/hepes mixture (Membrane Potential Assay Kit Red (FMP), bulk format Cat. No. R8123) were initially prepared according to the following protocol:
# • 1000 ml 1× HBSS buffer (Hank's Balanced Salt Solution (1×) (Gibco; No. 14025)+10 ml hepes (1M stock solution, pH 7.4; hepes Na salt (Sigma Company; No. H7006-500 g; storage at 4° C. in a refrigerator) 2. 1× FMP/HBSS/hepes working solution: • 6 ml HBSS/hepes buffer are added to 5 ml of the FMP solution stored at −20° C. (preparation see below; thawing out at room temperature). The test substances (2 mM batch solution in 100% DMSO) contained in drug plates (Costar 96-well plates, catalogue No. 3795) were then diluted by adding HBSS/hepes buffer to a concentration of 30 μM (3× concentrated). The assay plates on which the cells grow were washed once with 200 μl HBSS/hepes (Cellwash Washer, Labsystems Company, catalogue No. 5161550) and the remaining volume was removed by tapping out the inverted plate twice. 100 μl of the FMP/HBSS/hepes working solution were then added in each case to the cell plates and incubated for 1 hour in the CO2 incubator at 37° C. and 5% CO2. The measurements are then carried out with a FLIPR III instrument from the Molecular Devices company (96-format, using the 540-590 nm band-pass filter in the #2 localization). In the experimental setup of the FLIPR software, filter #2 should be selected. The cell plates and the substance plates were fed alternately into the input stack. A signal test was carried out in each case with the cell plates before adding the substance. The test substances were then added via the pipetting unit of the FLIPR (added volume 50 μl, 3× concentrated, end concentration 10 μM) to the cavities of the cell plates in a total volume of 150 μl/well. The threshold data of the FLIPR program were as follows:
# The pipette tips were washed after each pipetting procedure 3 times with 1% DMSO in water. The times of the measurement intervals after addition of the test substances are as follows:
# Total measurement time: 6 min/plate
# The test samples were evaluated by calculating the difference between the maximum and minimum values. EC50/IC50 values are calculated using the Graph Pad Prism software.
# Preparation of the membrane potential loading buffer (membrane potential assay kit red (FMP), bulk format cat. No. R8123) according to the manufacturer's instructions:
# 10 ml of the 10× assay buffer (component B) were diluted with 90 ml of sterile water and then adjusted to pH 7.4 with 1.0N NaOH (1× assay buffer). One vessel with the FLIPR membrane potential assay component A was completely dissolved in 100 ml 1× assay buffer and thoroughly mixed for 10 minutes with a magnetic stirrer. 5 ml aliquots were then stored at −20° C. (storage shelf life ca. 2 weeks).
# An agonistic action can be detected starting from a value of −40 (and below).
# [2] = target: T2, hKCNQ2/3 (stably transfected hKCNQ2/3 CHO-K1 cell line) (Homo sapiens, UniProt O43525+O43526); test: Voltage clamp (patch-clamp) measurements, current increase relative to retigabin; type: cell-based; details: test substance 10 μM at −40 mV; current increase standardized to retigabin (10 μM) effect
# T2 construct: expressed in transfected cells; host or cells: CHO-K1
# Procedure: II. Voltage Clamp Measurements
# In order to confirm electrophysiologically a KCNQ2/3 agonistic action of the substances, patch-clamp measurements [see Hamill O P, Marty A, Neher E, Sakmann B, Sigworth F J: “Improved patch-clamp techniques for high-resolution current recording from cells and cell-free membrane patches”, Pflugers Arch. 1981 August; 391(2):85-100] were carried out in the voltage clamp mode on a stably transfected hKCNQ2/3 CHO-K1 cell line. After formation of the gigaseal the cells were first of all clamped at a holding potential of −60 mV. Depolarising voltage jumps were then applied up to a potential of +20 mV (increment: 20 mV, duration: 1 second), in order to confirm the functional expression of KCNQ2/3 typical currents. The substances were tested at a potential of −40 mV. The current increase induced by retigabin (10 μM) was first of all recorded on each cell at −40 mV as positive control. After completely washing out the retigabin effect (duration: 80 sec) the test substance (10 μM) was applied. The current increase induced by the test substance was standardized to the retigabin effect and stated as relative efficacy (see below).
Structure (SMILES),"FLIPR membrane potential fluorescence change (ΔF %, max minus min); negative values indicate KCNQ2/3 agonism [1] [%]",Voltage clamp: relative efficacy with respect to retigabin [10 μM] [2]
"CCCCc1ccc(CNc2noc3cc(F)ccc23)cc1 [Example 171, (4-butylbenzyl)-(6-fluorobenzo[d]isoxazol-3-yl)-amine]",−53,0.68
"FC(F)(F)Sc1ccc(CNc2noc3ccccc23)cc1 [Example 160, benzo[d]isoxazol-3-yl-(4-trifluoromethylsulfanyl-benzyl)-amine]",−58,0.45
"FC(F)(F)c1ccc(CNc2noc3ccccc23)cc1 [Example 152, benzo[d]isoxazol-3-yl-(4-trifluoromethylbenzyl)-amine]",−49,0.22
"N#Cc1cccc(NC(=S)Nc2noc3cc(F)ccc23)c1 [Example 112, 1-(3-cyanophenyl)-3-(6-fluoro-benzo[d]isoxazol-3-yl)-thiourea]",–,0.3
"Cc1cc(C)cc(CNc2noc3c(F)cccc23)c1 [Example 167, (3,5-dimethylbenzyl)-(7-fluorobenzo[d]isoxazol-3-yl)-amine]",−61,0.25
"COc1ccc(CNc2noc3cc(F)ccc23)cc1Br [Example 168, (3-bromo-4-methoxy-benzyl)-(6-fluorobenzo[d]-isoxazol-3-yl)-amine]",–,0.35
"CC(Nc1noc2ccccc12)c1ccc(C(F)(F)F)cc1 (centres unmarked) [Example 1, Benzo[d]isoxazol-3-yl-[1-(4-trifluoro-methylphenyl)-ethyl]-amine]",–,0.42
"Fc1ccc2c(NCc3cccc(OCc4ccccc4)c3)noc2c1 [Example 173, (3-benzyloxybenzyl)-(6-fluorobenzo[d]isoxazol-3-yl)-amine]",−55,0.84
"COc1ccccc1NC(=S)Nc1noc2cccc(OC)c12 [Example 130, 1-(4-methoxybenzo[d]isoxazol-3-yl)-3-(2-methoxyphenyl)-thiourea]",–,0.2
"Fc1cc(C(F)(F)F)ccc1CNc1noc2ccccc12 [Example 163, benzo[d]isoxazol-3-yl-(2-fluoro-4-trifluoromethyl-benzyl)-amine]",−56,1.29
"CCCCc1ccc(CNc2noc3cccc(N)c23)cc1 [Example 175, N3-(4-butylbenzyl)-benzo[d]isoxazole-3,4-diamine]",−57.7,0.59
"Cc1cc(C)cc(CNc2noc3cccc(N)c23)c1 [Example 174, N3-(3,5-dimethylbenzyl)-benzo[d]isoxazole-3,4-diamine]",−45.5,0.8
"Fc1ccc2onc(NCc3ccc(OC(F)(F)F)cc3)c2c1 [Example 159, (5-fluorobenzo[d]isoxazol-3-yl)-(4-trifluoromethoxy-benzyl)-amine]",−41,0.42
"CC(Nc1noc2ccccc12)c1ccc(SC(F)(F)F)cc1 (centres unmarked) [Example 2, Benzo[d]isoxazol-3-yl-[1-(4-trifluoromethyl-sulfanylphenyl)-ethyl]-amine]",–,0.37
"CCCCCCCCCNC(=S)Nc1noc2cccc(OCc3ccc(C)cc3)c12 [Example 87, 1-[4-(4-methylbenzyloxy)-benzo[d]isoxazol-3-yl]-3-nonyl-thiourea]",−66.5,–
"S=C(NCc1ccccc1)Nc1noc2cccc(Cl)c12 [Example 52, 1-benzyl-3-(4-chloro-benzo[d]isoxazol-3-yl)-thiourea]",−67.5,–
"Fc1ccc2onc(NCc3ccc(SC(F)(F)F)cc3)c2c1 [Example 162, (5-fluorobenzo[d]isoxazol-3-yl)-(4-trifluoromethyl-sulfanylbenzyl)-amine]",–,0.79
"COc1ccc(Cl)cc1NC(=S)Nc1noc2cccc(OC)c12 [Example 132, 1-(5-chloro-2-methoxyphenyl)-3-(4-methoxybenzo[d]isoxazol-3-yl)-thiourea]",−45,–
"Cc1cccc(Cl)c1NC(=S)Nc1noc2cc(F)ccc12 [Example 113, 1-(2-chloro-6-methylphenyl)-3-(6-fluorobenzo[d]isoxazol-3-yl)-thiourea]",−55,–
"S=C(Nc1noc2cc(Cl)ccc12)NC1CCCC1 [Example 103, 1-(6-chlorobenzo[d]isoxazol-3-yl)-3-cyclopentyl-thiourea]",−58,–
"FC(F)(F)Sc1ccc(CNc2noc3ccc(Br)cc23)cc1 [Example 176, (5-bromobenzo[d]isoxazol-3-yl)-(4-trifluoromethyl-sulfanyl-benzyl)-amine]",–,0.62
"Fc1ccc2onc(NC(=S)NCC3CCCO3)c2c1 (centres unmarked) [Example 98, 1-(5-fluorobenzo[d]isoxazol-3-yl)-3-(tetrahydrofuran-2-yl-methyl)-thiourea]",−43.5,–
"Cc1cc(CNc2noc3cc(F)ccc23)cc(C)c1OCc1ccccc1 [Example 170, (4-benzyloxy-3,5-dimethyl-benzyl)-(6-fluorobenzo[d]isoxazol-3-yl)-amine]",–,0.72
"CC(NC(=S)Nc1noc2cccc(Cl)c12)c1ccccc1 (centres unmarked) [Example 53, 1-(4-chlorobenzo[d]isoxazol-3-yl)-3-(1-phenyl-ethyl)-thiourea]",−42.5,–
"COc1ccc(NC(=S)Nc2noc3cc(Cl)ccc23)cc1 [Example 106, 1-(6-chlorobenzo[d]isoxazol-3-yl)-3-(4-methoxyphenyl)-thiourea]",−59,–
"COC(=O)C(C)NC(=S)Nc1noc2cccc(F)c12 (centres unmarked) [Example 50, 2-[3-(4-fluoro-benzo[d]isoxazol-3-yl)-thioureido]-propionic acid methyl ester]",−59.5,–
